# Source: patent publication US12497666B2, “Nucleic acid biomarker and use thereof” (Daiichi Sankyo Co., Ltd., priority 2013, dated 2025)
# Read-outs that look alike come from different tables or passages of the source.
# How the values were obtained:
# [1] = system: Stage IIIb/IV NSCLC; settings: for On-Study Death / Primary Cause of On-Study Death: Adverse Event / Primary Cause of On-Study Death: Disease Progression / Primary Reason for Discontinuing Study Treatment: Death / Primary Reason for Discontinuing Study Treatment: Progressive Disease (Radiographic Progression): Enrolled/Randomized set; for objective response (CR or PR) / disease control rate: HRG high
# Procedure: (§1) In both portions of the study, subjects received 150 mg of erlotinib orally once daily. […] Tumors were to be assessed every 6 weeks (±3 days) up to the first 24 weeks of the study, then every 12 weeks (+7 days) independent of treatment cycle.
# All efficacy analyses were performed on the full analysis set, which includes all subjects in the randomized analysis set who received at least one dose of randomized study medication. The primary efficacy endpoint was PFS. PFS is defined as the time from the date of randomization to the earlier of the dates of the first objective documentation of radiographic disease progression or death due to any cause. A subject who was alive with no Objective documentation of (radiographic) disease progression by the data cut-off date was to be censored at the date of the last evaluable tumor assessment. The key secondary efficacy endpoint, overall survival, was defined as the time from the date of randomization to death due to any cause and was analyzed in the same manner as the primary efficacy endpoint PFS.
# Kaplan-Meier curves were generated for PFS and used to calculate medians and 95% CIs for each treatment group. […] Cox's proportional hazards model.
# The stratification factors included histology (Adenocarcinoma vs Non-Adenocarcinoma) and best response to prior therapy (CR/PR/SD vs PD).
# Unless otherwise indicated, log-rank p-values and HRs for PFS and OS were based on the primary analysis adjusted for the stratification factors at randomization as described above.
# [2] = system: Stage IIIb/IV NSCLC
# Procedure: as §1
# Subjects were also administered 150 mg/day erlotinib during the phase 2 trial.
# [3] = Full Analysis Set, Kaplan-Meier, placebo + erlotinib
# [4] = Full Analysis Set, placebo + erlotinib
# [5] = HRG high (dCt<3.9), placebo + erlotinib
# [6] = HRG high and EGFR wild type, placebo + erlotinib
# [7] = 18 mg/kg patritumab + erlotinib
# [8] = Full Analysis Set, 9 mg/kg patritumab + erlotinib
# [9] = Full Analysis Set, 18 mg/kg patritumab + erlotinib
# [10] = Full Analysis Set, Kaplan-Meier, 9 mg/kg patritumab + erlotinib
# [11] = Full Analysis Set, Kaplan-Meier, 18 mg/kg patritumab + erlotinib
# [12] = HRG high (dCt<3.9), 9 mg/kg patritumab + erlotinib
# [13] = HRG high (dCt<3.9), 18 mg/kg patritumab + erlotinib
# [14] = HRG high (dCt<3.9), patritumab doses combined + erlotinib
# [15] = HRG high and EGFR wild type, 9 mg/kg patritumab + erlotinib
# [16] = HRG high and EGFR wild type, 18 mg/kg patritumab + erlotinib
# [17] = HRG high and EGFR wild type, patritumab doses combined + erlotinib
# [18] = HRG low, 9 mg/kg patritumab + erlotinib
# [19] = HRG low, 18 mg/kg patritumab + erlotinib
# [20] = HRG low, patritumab doses combined + erlotinib
substance,measurement,setting,value
"erlotinib [Placebo + erlotinib, reference compound]",On-Study Death,[1]; placebo + erlotinib,13 (18.3%) subjects (%)
same,Primary Cause of On-Study Death: Adverse Event,[1]; placebo + erlotinib,5 (7.0%) subjects (%)
same,Primary Cause of On-Study Death: Disease Progression,[1]; placebo + erlotinib,8 (11.3%) subjects (%)
same,Primary Reason for Discontinuing Study Treatment: Death,[1]; placebo + erlotinib,4 (5.6%) subjects (%)
same,Primary Reason for Discontinuing Study Treatment: Progressive Disease (Radiographic Progression),[1]; placebo + erlotinib,50 (70.4%) subjects (%)
same,"Overall Survival, time to event, Median",[1]; [3],7.2 months
same,"Progression-Free Survival, time to event, Median",[1]; [3],1.6 months
same,"Subjects (%) with events, OS",[1]; [4],48 (67.6%) subjects (%)
same,"Subjects (%) with events, PFS",[1]; [4],59 (83.1%) subjects (%)
same,number of subjects with the response being CP/PR,[1]; [4],4 (5.6%) subjects (%)
same,OS Rate at 1 Year (%),[1]; [5],32.4%
same,OS Rate at 6 Months (%),[1]; [5],49.4%
same,OS Rate at 9 Months (%),[1]; [5],49.4%
same,PFS Rate at 8 Weeks (%),[1]; [5],31.3%
same,PFS Rate at 14 Weeks (%),[1]; [5],18.8%
same,PFS Rate at 26 Weeks (%),[1]; [5],0.0%
same,"Progression-Free Survival, time to event, Median",[1]; [5],1.4 months
same,"Subjects (%) with events, OS",[1]; [5],11 (61.1%) subjects (%)
same,"Subjects (%) with events, PFS",[1]; [5],16 (88.9%) subjects (%)
same,"Overall Survival, time to event, Median","[1]; HRG high (dCt<3.9), preliminary, placebo + erlotinib",5.0 months
same,"Progression-Free Survival, time to event, Median",[1]; [6],1.4 months
same,"Subjects (%) with events, PFS",[1]; [6],8 ( 88.9%) subjects (%)
same,objective response (CR or PR),[1]; placebo + erlotinib,1 (5.6%) subjects (%)
same,disease control rate,[1]; placebo plus erlotinib,22.2%
same,"Overall Survival, time to event, Median","[1]; HRG low, placebo + erlotinib",8.0 months
same,"Progression-Free Survival, time to event, Median","[1]; HRG low, placebo + erlotinib",1.4 months
same,"Subjects (%) with events, OS","[1]; HRG low, placebo + erlotinib",11 (68.8%) subjects (%)
same,"Subjects (%) with events, PFS","[1]; HRG low, placebo + erlotinib",13 ( 81.3%) subjects (%)
"patritumab + erlotinib: combination of 150 mg erlotinib daily and anti-HER3 antibody patritumab IV every 3 weeks (18 mg/kg, or 18 mg/kg loading with 9 mg/kg maintenance)",response,"[2]; Phase 1b, 7 subjects",No response was recorded
same,grade of reported AEs,[2]; in vivo,Most reported AEs were grade 1 or 2
same,patritumab-related AE: decreased appetite,[2]; in vivo,2 subjects
same,serious AEs,[2]; in vivo,Three subjects had four serious AEs
same,HR (pooled dose vs placebo) for PFS in the HRG high group,[1]; Cut-off for delta Ct 2.7 (first quartile),0.180
same,HR (pooled dose vs placebo) for PFS in the HRG high group,[1]; Cut-off for delta Ct 3.0,0.177
same,HR (pooled dose vs placebo) for PFS in the HRG high group,[1]; Cut-off for delta Ct 3.5,0.283
same,HR (pooled dose vs placebo) for PFS in the HRG high group,[1]; Cut-off for delta Ct 3.9 (median),0.324
same,HR (pooled dose vs placebo) for PFS in the HRG high group,[1]; Cut-off for delta Ct 4.5,0.490
same,HR (pooled dose vs placebo) for PFS in the HRG high group,[1]; Cut-off for delta Ct 5.0 (third quartile),0.561
same,On-Study Death,[1]; 9 mg/kg patritumab + erlotinib,9 (12.5%) subjects (%)
same,Primary Cause of On-Study Death: Adverse Event,[1]; 9 mg/kg patritumab + erlotinib,4 (5.6%) subjects (%)
same,Primary Cause of On-Study Death: Disease Progression,[1]; 9 mg/kg patritumab + erlotinib,4 (5.6%) subjects (%)
same,Primary Reason for Discontinuing Study Treatment: Death,[1]; 9 mg/kg patritumab + erlotinib,2 (2.8%) subjects (%)
same,Primary Reason for Discontinuing Study Treatment: Progressive Disease (Radiographic Progression),[1]; 9 mg/kg patritumab + erlotinib,45 (62.5%) subjects (%)
same,On-Study Death,[1]; [7],20 (27.8%) subjects (%)
same,Primary Cause of On-Study Death: Adverse Event,[1]; [7],11 (15.3%) subjects (%)
same,Primary Cause of On-Study Death: Disease Progression,[1]; [7],8 (11.1%) subjects (%)
same,Primary Reason for Discontinuing Study Treatment: Death,[1]; [7],11 (15.3%) subjects (%)
same,Primary Reason for Discontinuing Study Treatment: Progressive Disease (Radiographic Progression),[1]; [7],42 (58.3%) subjects (%)
same,"Subjects (%) with events, OS",[1]; [8],46 (64.8%) subjects (%)
same,"Subjects (%) with events, PFS",[1]; [8],52 (73.2%) subjects (%)
same,"Subjects (%) with events, OS",[1]; [9],54 (77.1%) subjects (%)
same,"Subjects (%) with events, PFS",[1]; [9],58 (82.9%) subjects (%)
same,"Overall Survival, time to event, Median",[1]; [10],6.3 months
same,"Progression-Free Survival, time to event, Median",[1]; [10],2.5 months
same,"Overall Survival, time to event, Median",[1]; [11],5.3 months
same,"Progression-Free Survival, time to event, Median",[1]; [11],1.4 months
same,number of subjects with the response being CP/PR,"[1]; Full Analysis Set, high-dose patritumab + erlotinib",5 (7.1%) subjects (%)
same,number of subjects with the response being CP/PR,"[1]; Full Analysis Set, low-dose patritumab + erlotinib",9 (12.9%) subjects (%)
same,OS Rate at 1 Year (%),[1]; [12],49.2%
same,OS Rate at 6 Months (%),[1]; [12],68.8%
same,OS Rate at 9 Months (%),[1]; [12],56.3%
same,PFS Rate at 8 Weeks (%),[1]; [12],67.7%
same,PFS Rate at 14 Weeks (%),[1]; [12],33.9%
same,PFS Rate at 26 Weeks (%),[1]; [12],20.3%
same,"Progression-Free Survival, time to event, Median",[1]; [12],3.0 months
same,"Subjects (%) with events, OS",[1]; [12],9 (56.3%) subjects (%)
same,"Subjects (%) with events, PFS",[1]; [12],12 (75.0%) subjects (%)
same,OS Rate at 1 Year (%),[1]; [13],22.2%
same,OS Rate at 6 Months (%),[1]; [13],50.7%
same,OS Rate at 9 Months (%),[1]; [13],44.3%
same,PFS Rate at 8 Weeks (%),[1]; [13],56.3%
same,PFS Rate at 14 Weeks (%),[1]; [13],50.0%
same,PFS Rate at 26 Weeks (%),[1]; [13],15.6%
same,"Progression-Free Survival, time to event, Median",[1]; [13],3.4 months
same,"Subjects (%) with events, OS",[1]; [13],12 (70.6%) subjects (%)
same,"Subjects (%) with events, PFS",[1]; [13],13 (76.5%) subjects (%)
same,OS Rate at 1 Year (%),[1]; [14],35.8%
same,OS Rate at 6 Months (%),[1]; [14],59.6%
same,OS Rate at 9 Months (%),[1]; [14],50.2%
same,PFS Rate at 8 Weeks (%),[1]; [14],62.1%
same,PFS Rate at 14 Weeks (%),[1]; [14],42.5%
same,PFS Rate at 26 Weeks (%),[1]; [14],18.4%
same,"Progression-Free Survival, time to event, Median",[1]; [14],3.0 months
same,"Subjects (%) with events, OS",[1]; [14],21 (63.6%) subjects (%)
same,"Subjects (%) with events, PFS",[1]; [14],25 (75.8%) subjects (%)
same,"Overall Survival, time to event, Median","[1]; HRG high (dCt<3.9), preliminary, 9 mg/kg patritumab + erlotinib",10.6 months
same,"Overall Survival, time to event, Median","[1]; HRG high (dCt<3.9), preliminary, 18 mg/kg patritumab + erlotinib",6.1 months
same,"Overall Survival, time to event, Median","[1]; HRG high (dCt<3.9), preliminary, patritumab doses combined + erlotinib",9.7 months
same,"Progression-Free Survival, time to event, Median",[1]; [15],2.8 months
same,"Subjects (%) with events, PFS",[1]; [15],6 ( 85.7%) subjects (%)
same,"Progression-Free Survival, time to event, Median",[1]; [16],2.8 months
same,"Subjects (%) with events, PFS",[1]; [16],5 (100.0%) subjects (%)
same,"Progression-Free Survival, time to event, Median",[1]; [17],2.8 months
same,"Subjects (%) with events, PFS",[1]; [17],11 (91.7%) subjects (%)
same,disease control rate,[1]; 9 mg/kg patritumab plus erlotinib,62.5%
same,disease control rate,[1]; 18 mg/kg patritumab plus erlotinib,52.9%
same,objective response (CR or PR),[1]; high-dose patritumab + erlotinib,No subject
same,objective response (CR or PR),[1]; low-dose patritumab + erlotinib,4 (25.0%) subjects (%)
same,"Overall Survival, time to event, Median",[1]; [18],6.3 months
same,"Progression-Free Survival, time to event, Median",[1]; [18],2.1 months
same,"Subjects (%) with events, OS",[1]; [18],10 ( 66.7%) subjects (%)
same,"Subjects (%) with events, PFS",[1]; [18],12 ( 80.0%) subjects (%)
same,"Overall Survival, time to event, Median",[1]; [19],9.6 months
same,"Progression-Free Survival, time to event, Median",[1]; [19],1.4 months
same,"Subjects (%) with events, OS",[1]; [19],12 ( 63.2%) subjects (%)
same,"Subjects (%) with events, PFS",[1]; [19],13 ( 68.4%) subjects (%)
same,"Overall Survival, time to event, Median",[1]; [20],9.3 months
same,"Progression-Free Survival, time to event, Median",[1]; [20],1.9 months
same,"Subjects (%) with events, OS",[1]; [20],22 ( 64.7%) subjects (%)
same,"Subjects (%) with events, PFS",[1]; [20],25 ( 73.5%) subjects (%)
same,improvement in PFS or OS as compared to erlotinib plus placebo,[1]; full analysis set,no significant improvement in PFS or OS
same,treatment difference in PFS and OS,[1]; subjects with tumors expressing low levels of HRG (dCt>3.9),no clear treatment difference in PFS and OS
